Consider 14 compounds from patent US20080119513A1, “Sulfonamide Derivative Selectively Inhibiting Mmp-13” (priority 2004, published 2008).

Holding throughout (type): biochemical
One experiment has as its target T1, MMP-2 (Homo sapiens, UniProt P08253).
T1 sequence (P08253 110-660): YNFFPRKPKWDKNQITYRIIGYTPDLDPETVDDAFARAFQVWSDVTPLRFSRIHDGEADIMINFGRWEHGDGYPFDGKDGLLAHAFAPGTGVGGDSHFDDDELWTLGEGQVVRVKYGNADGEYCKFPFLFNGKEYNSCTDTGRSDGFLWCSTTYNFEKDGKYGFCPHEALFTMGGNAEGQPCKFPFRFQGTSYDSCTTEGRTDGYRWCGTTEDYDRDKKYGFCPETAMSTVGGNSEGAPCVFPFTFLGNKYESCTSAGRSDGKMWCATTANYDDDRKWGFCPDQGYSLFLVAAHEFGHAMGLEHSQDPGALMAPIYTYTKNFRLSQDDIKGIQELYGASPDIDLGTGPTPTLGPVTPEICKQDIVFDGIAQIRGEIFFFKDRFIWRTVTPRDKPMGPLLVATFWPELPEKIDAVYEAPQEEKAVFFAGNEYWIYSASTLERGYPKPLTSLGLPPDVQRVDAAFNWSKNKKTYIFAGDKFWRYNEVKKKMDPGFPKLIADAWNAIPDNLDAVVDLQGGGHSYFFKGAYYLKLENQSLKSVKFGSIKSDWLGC
The experiment can be described thus: Assay for inhibitory activities on MMPs (fluorogenic peptide substrate), MMP-2. Here is the method:
MMP-2 was purchased from Calbiochem-Novabiochem International, Inc.
(§1) The enzymatic activity on MMPs was analyzed by the method described in “C. Graham Knight, Frances Willenbrock and Gillian Murphy: A novel coumarin-labelled peptide for sensitive continuous assays of the matrix metalloproteinases: FEBS LETT., 296, (1992), 263-266”. The substrate: MOCAc-Pro-Leu-Gly-Leu-A2Pr(DNP)-Ala-Arg-NH2 was purchased from Peptide Institute, Inc., Osaka, Japan. The measurement of the inhibitory activities (IC50) was carried out by the following four methods;
(§2) (A) Reaction with substrate, enzyme (MMPs) and inhibitor
(§3) (B) Reaction with substrate and inhibitor, without enzyme
(§4) (C) Reaction with substrate and enzyme (MMPs), without inhibitor
(§5) (D) Reaction with substrate only
(§6) IC50 values were calculated by using the following formula and each fluorescence values of above four methods (A to D).
(§7) % inhibition={1-(A−B)/(C−D)}×100
(§8) IC50 means the concentration required to inhibit 50% of the enzyme activity.
(§9) The value of inhibitory activity against MMP-2, MMP-8, MMP-9, MMP-12, and MMP-13 measured by above mentioned methods are shown in Table 25 and 26.

The target of the next experiment is T2, MMP-12 (Homo sapiens, UniProt P39900).
T2 construct: In regard to MMP-12, catalytic domain (^100Phe˜^263Gly) was amplified with RT-PCR; His-tag; enterokinase digestion-site
The experiment can be described thus: Assay for inhibitory activities on MMPs (fluorogenic peptide substrate), MMP-12. Here is the method: In regard to MMP-12, catalytic domain (^100Phe˜^263Gly) was amplified with RT-PCR from Human Placenta Total RNA. This was cloned in Escherichia coli expression vector pTrc99AHE inserted with His-tag sequence and enterokinase digestion-site, induced and expressed by IPTG (Isopropyl-β-D-thiogalactopyranoside) and expressed in an insoluble fraction. Isolation of MMP-12 from an insoluble fraction was carried out by dissolving in modifier (6 M urea) by a usual method and purification with metal chelate chromatography (Ni Chelateing Sepharose). And then removing modifier (6 M urea) with dialysis and refolding of the enzyme spontaneously gave activated MMP-12.
as §1, §2, §3, §4, §5, §6, §7, §8, §9

A further experiment has as its target T3, MMP-8 (Homo sapiens, UniProt P22894).
T3 construct: In regard to MMP-8, catalytic domain (^99Phe˜^262Gly) was amplified with PCR; His-tag; enterokinase digestion-site
Description: Assay for inhibitory activities on MMPs (fluorogenic peptide substrate), MMP-8.
Source text: In regard to MMP-8, catalytic domain (^99Phe˜^262Gly) was amplified with PCR using commercial available Human Bone Marrow cDNA. This was cloned in Escherichia coli expression vector pTrc99AHE inserted with His-tag sequence and enterokinase digestion-site, induced and expressed by IPTG (Isopropyl-β-D-thiogalactopyranoside) and expressed in a insoluble fraction (Than F. Ho, M. Walid Qoronfleh, Robert C. Wahl, Trica A. Pulvino, Karen J. Vavra, Joe Falvo, Tracey M. Banks, Patricia G. Brake and Richard B. Ciccarelli: Gene expression, purification and characterization of recombinant human neutrophil collagenase. Gene 146, (1994) 297-301. It was prepared by the method in a slight modification). Isolation of MMP-8 from an insoluble fraction was carried out by dissolving in modifier (6 M urea) by a usual method and purification with metal chelate chromatography. And then removing modifier (6 M urea) with dialysis and refolding of the enzyme spontaneously gave activated MMP-8.
as §1, §2, §3, §4, §5, §6, §7, §8, §9

In another experiment the target is MMP-9 (Homo sapiens, UniProt P14780). The experiment can be described thus: Assay for inhibitory activities on MMPs (fluorogenic peptide substrate), MMP-9.
Source text: MMP-9 was isolated and purified by the procedure of Y. Okada et al. (Yasunori Okada, Yukio Gonoji, Katsumi Naka, Katsuro Tomita, Isao Nakanishi, Kazushi Iwata, Kyoko Yamashita, and Taro Hayakawa: Matrix metalloproteinase 9 (92-kDa gelatinase/type IV collagenase) from HT1080 human fibrosarcoma cells. Purification and activation of the precursor and enzymic properties, J. Biol. Chem., 1992, 267, 21712-21719) in combination with other following methods: 1) Yasunori Okada, Tatsuhisa Morodomi, Jan J, Enghild, Ko Suzuki, Atsushi Yasui, Isao Nakanishi, Guy Salvesen and Hideaki Nagase: Matrix metalloproteinase 2 from human rheumatoid synovial fibroblasts. Purification and activation of the precursor and enzymic properties, Eur. J. Biochem., 1990, 194, 721-730; 2) Robin V Ward, Rosalind M Hembry, John J Reynolds and Gillian Murphy: The purification of tissue inhibitor of metalloproteinase-2 from its 72 kDa progelatinase complex. Biochem. J., 1991, 278, 179-187. In detail, human fibrosarcoma ATCC HT1080 cell line was cultured to confluent in Dulbecco's Modified Medium (DMEM) containing 10% fetal-calf serum at 37° C. for 48 hours. Subsequently, the medium of confluent culture was changed to serum-free DMEM medium. To obtain MMP-9, phorbol-12-myristate-13-acetate (TPA) must be added to this serum-free DMEM medium at a concentration of 50 ng/ml. The TPA-treated medium was centrifuged at 3000 rpm for 15 min, and the supernatant was concentrated to 450 ml by a Toyo-Roshi UP-20 apparatus with an ultrafiltration membrane. Then, proMMP-9 in this concentrated solution was purified by using columns of Gelatin-Sepharose and Concanavalin A-Sepharose. The pool containing proMMP-9 was dialyzed, concentrated (Toyo-Roshi UP-20) and applied to columns of Sephacryl S-200 and Green A matrix for the separation from TIMPs. The obtained proMMP-9 fraction was activated by TPCK-Trypsin (Final conc.: 3 μg/501 React Mix.).
as §1, §2, §3, §4, §5, §6, §7, §8, §9

A further experiment has as its target T4, MMP-13 (Homo sapiens, UniProt P45452).
T4 construct: catalytic domain (^104Tyr˜^267Gly) was amplified with RT-PCR; His-tag; enterokinase digestion-site
The experiment can be described thus: Assay for inhibitory activities on MMPs (fluorogenic peptide substrate), MMP-13. Here is the method: In regard to MMP-13, mRNA was prepared from carcinoma cell SW1353 derived from human cartilage stimulate by IL-1 and TNF, and catalytic domain (^[…]) was amplified with RT-PCR. This was cloned in Escherichia coli expression vector […] inserted with His-tag sequence and enterokinase digestion-site, induced and expressed by IPTG (Isopropyl-β-D-thiogalactopyranoside) and expressed in an insoluble fraction. Isolation of MMP-13 from an insoluble fraction was carried out by dissolving in modifier (6 M urea) by a usual method and purification with metal chelate chromatography (Ni […] Sepharose). And then removing modifier (6 M urea) with dialyze and refolding of the enzyme spontaneously gave activated MMP-13. The enzymatic activity on MMPs was analyzed by the method described in “C. Graham Knight, Frances Willenbrock and Gillian Murphy: A novel coumarin-labelled peptide for sensitive continuous assays of the matrix metalloproteinases: FEBS LETT., 296, (1992), 263-266”. The substrate: MOCAc-[…] was purchased from Peptide Institute, Inc., Osaka, Japan. The measurement of the inhibitory activities (IC50) was carried out by the following four methods; (A) Reaction with substrate, enzyme (MMPs) and inhibitor (B) Reaction with substrate and inhibitor, without enzyme (C) Reaction with substrate and enzyme (MMPs), without inhibitor (D) Reaction with substrate only IC50 values were calculated by using the following formula and each fluorescence values of above four methods (A to D). % inhibition={1-(A-B)/(C-D)}×100 IC50 means the concentration required to inhibit 50% of the enzyme activity. The value of inhibitory activity against MMP-2, MMP-8, MMP-9, MMP-12, and MMP-13 measured by above mentioned methods are shown in Table 25 and 26.

Each structure is given as a SMILES string.

T2 sequence (P39900 100-263): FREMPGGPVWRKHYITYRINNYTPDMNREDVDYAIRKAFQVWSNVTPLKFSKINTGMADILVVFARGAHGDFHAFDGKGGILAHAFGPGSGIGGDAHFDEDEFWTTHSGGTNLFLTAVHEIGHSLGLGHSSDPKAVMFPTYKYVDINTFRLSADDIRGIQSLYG
Chain of MMP-9 (P14780 107-707): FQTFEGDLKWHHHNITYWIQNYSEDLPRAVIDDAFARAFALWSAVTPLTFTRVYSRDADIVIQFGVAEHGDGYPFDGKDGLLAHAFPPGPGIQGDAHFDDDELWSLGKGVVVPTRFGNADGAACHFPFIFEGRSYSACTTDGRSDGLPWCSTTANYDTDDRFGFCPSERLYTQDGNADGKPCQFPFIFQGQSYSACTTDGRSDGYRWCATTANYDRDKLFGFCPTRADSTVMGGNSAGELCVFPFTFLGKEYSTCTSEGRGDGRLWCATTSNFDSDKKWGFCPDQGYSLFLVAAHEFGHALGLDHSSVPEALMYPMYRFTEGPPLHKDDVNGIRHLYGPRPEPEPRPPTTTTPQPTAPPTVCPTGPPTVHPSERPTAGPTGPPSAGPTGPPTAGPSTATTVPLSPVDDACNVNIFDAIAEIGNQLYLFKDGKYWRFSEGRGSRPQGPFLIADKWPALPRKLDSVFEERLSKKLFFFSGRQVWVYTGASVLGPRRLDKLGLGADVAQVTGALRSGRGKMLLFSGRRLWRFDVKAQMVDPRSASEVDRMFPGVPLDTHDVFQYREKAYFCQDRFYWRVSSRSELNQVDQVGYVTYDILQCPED
T3 sequence (P22894 99-262): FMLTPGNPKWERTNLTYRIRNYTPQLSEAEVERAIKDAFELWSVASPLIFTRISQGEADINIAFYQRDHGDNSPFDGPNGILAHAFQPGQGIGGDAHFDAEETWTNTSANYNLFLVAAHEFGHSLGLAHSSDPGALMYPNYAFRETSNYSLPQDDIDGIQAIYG

As to `COc1ccc2cc(C#Cc3ccc(-c4ccc(S(=O)(=O)N[C@H](CO)C(=O)O)cc4)cc3)ccc2c1` [III-44], the IC50 was 5.01 µM against MMP-2; 5.29 µM on MMP-12; > 10 µM on MMP-8; > 10 µM at MMP-9; 0.00349 µM at MMP-13.
On to `COc1ccc(C(=O)Nc2ccc(-c3ccc(S(=O)(=O)N[C@@H](CCSC)C(=O)O)cc3)cc2)cc1OC` [VI-35], for which the IC50 at MMP-2 is 2.22 µM; at MMP-12, 0.232 µM; at MMP-8, 0.215 µM; at MMP-9 it was > 10 µM; against MMP-13, 0.0687 µM.
The corresponding values for `COc1ccc2cc(C#Cc3ccc(-c4ccc(S(=O)(=O)N[C@H](C)C(=O)O)cc4)cc3)ccc2c1` [III-17] are > 10 µM, > 10 µM, > 10 µM, > 10 µM and 0.0056 µM.
The corresponding values for `O=C(Nc1ccc(-c2ccc(S(=O)(=O)N[C@H](Cc3ccccc3)C(=O)O)cc2)cc1)c1ccc2c(c1)OCO2` [VI-12] are 0.197 µM, 0.334 µM, 1.74 µM, > 10 µM and 0.0311 µM.
As to `CC(C)C[C@@H](NS(=O)(=O)c1ccc(-c2ccc(NC(=O)c3ccc4ccccc4c3)cc2)cc1)C(=O)O` [VI-41], the IC50 on MMP-2 is > 10 µM; on MMP-12, > 10 µM; at MMP-8, > 10 µM; at MMP-9 it was > 10 µM; against MMP-13, 0.178 µM.
For the compound `O=C(Nc1ccc(-c2ccc(S(=O)(=O)N[C@H](Cc3ccccc3)C(=O)O)cc2)cc1)c1ccc(F)c(F)c1` [VI-11], the IC50 on MMP-2 was 0.139 µM; against MMP-12 it was 9.01 µM; against MMP-8, > 10 µM; on MMP-9, > 10 µM; at MMP-13, 0.0388 µM.
In the case of `COc1ccc2cc(C#Cc3ccc(-c4ccc(S(=O)(=O)N[C@H](Cc5ccccc5)C(=O)O)cc4)cc3)ccc2c1` [III-28], the IC50 against MMP-2 is > 5 µM; at MMP-12, 2.2 µM; against MMP-8 it was > 5 µM; at MMP-9 it was > 5 µM; on MMP-13, 0.0157 µM.
Take `COc1ccc2cc(C#Cc3ccc(-c4ccc(S(=O)(=O)N[C@@H](C(=O)O)c5ccc(O)cc5)cc4)cc3)ccc2c1` [III-51]: the 50% inhibitory concentration (IC50) against MMP-2 is > 10 µM; against MMP-12, 0.536 µM; at MMP-8 it was 0.508 µM; on MMP-9 it was > 10 µM; against MMP-13, 0.128 µM.
Regarding `O=C(Nc1ccc(-c2ccc(S(=O)(=O)N[C@H](Cc3ccccc3)C(=O)O)cc2)cc1)c1ccc2ccccc2c1` [VI-10], the IC50 was > 10 µM against MMP-2; > 10 µM against MMP-12; > 10 µM against MMP-8; > 10 µM at MMP-9; 0.0214 µM against MMP-13.
With `COc1ccc2cc(C#Cc3ccc(-c4ccc(S(=O)(=O)N[C@@H](Cc5c[nH]c6ccccc56)C(=O)O)cc4)cc3)ccc2c1` [III-31], the IC50 at MMP-2 is > 10 µM; on MMP-12 it was 0.901 µM; at MMP-8, 4.46 µM; at MMP-9, > 10 µM; against MMP-13, 0.0201 µM.
On to `CC(C)[C@@H](NS(=O)(=O)c1ccc(-c2ccc(NC(=O)c3ccc4ccccc4c3)cc2)cc1)C(=O)O` [VI-39], for which the IC50 is 0.664 µM at MMP-2; > 10 µM against MMP-12; 5.4 µM against MMP-8; > 10 µM at MMP-9; 0.0811 µM against MMP-13.
On to `Cc1ccc(C(=O)Nc2ccc(-c3ccc(S(=O)(=O)N[C@H](C)C(=O)O)cc3)cc2)cc1` [VI-17], for which the IC50 on MMP-2 was 0.127 µM; at MMP-12, 0.952 µM; on MMP-8, > 10 µM; on MMP-9 it was > 10 µM; against MMP-13 it was 0.0356 µM.
For `COc1ccc(C(=O)Nc2ccc(-c3ccc(S(=O)(=O)N[C@H](Cc4ccccc4)C(=O)O)cc3)cc2)cc1OC` [VI-8], the IC50 is 1.05 µM on MMP-2; 0.839 µM at MMP-12; 0.723 µM against MMP-8; > 10 µM at MMP-9; 0.0272 µM against MMP-13.
As to `COc1ccc(C[C@H](NS(=O)(=O)c2ccc(-c3ccc(C#Cc4ccc5cc(OC)ccc5c4)cc3)cc2)C(=O)O)cc1` [III-48], the IC50 on MMP-2 was > 10 µM; at MMP-12, > 10 µM; at MMP-8, > 10 µM; on MMP-9 it was > 10 µM; against MMP-13, 0.1 µM.
